Here are results for four compounds from the NIST ThermoML archive (doi:10.1016/j.fluid.2007.06.008).

The conditions of data set [1]: Liquid; for mass density: 101.33 kPa; for Normal boiling temperature: Ebulliometric method (Recirculating still).
The nature of data set [2]: refractive index (Na D-line) (dimensionless). The following applies: 298.15 K; 101.33 kPa; Liquid; Standard Abbe refractometry.

Numbers after ± are expanded uncertainties.

Take `CC(C)(C)O` [2-methylpropan-2-ol]: in data set [1] (303.15 K), the mass density came out at 775.4 ± 0.66 kg/m3. Besides, the Normal boiling temperature in data set [1] was 82.18 ± 0.1 °C. In data set [2], the refractive index worked out at 1.3851 ± 0.0005.

Turning to `CCC(C)CC` [3-methylpentane], the mass density in data set [1] (298.15 K) came out at 659.62 ± 1.4 kg/m3. Further, the Normal boiling temperature in data set [1] was 63.2 ± 0.1 °C. For the same compound, the refractive index in data set [2] was 1.3744 ± 0.0005.

In the case of `CCO` [ethanol], the mass density in data set [1] (298.15 K) worked out at 785.04 ± 0.5 kg/m3. Further, the Normal boiling temperature in data set [1] came out at 78.26 ± 0.1 °C. For the same compound, the refractive index in data set [2] stood at 1.3598 ± 0.0007.

On to `CC1CCCCC1` [methylcyclohexane], for which, in data set [1] (298.15 K), the mass density came out at 764.92 ± 1.1 kg/m3. In addition, the Normal boiling temperature in data set [1] came out at 100.81 ± 0.1 °C. Further, the refractive index in data set [2] was 1.4208 ± 0.0005.

For orientation: mass density means mass per unit of volume. As a reminder, the refractive index is a measure of how strongly the sample bends light.
